Patent US10647680B2, “Urea compound, preparation method therefor and medical use thereof” (Ancureall Pharmaceutical (Shanghai) Co., Ltd., priority 2016, dated 2020)

What was measured:
HCC1954 (HER2/ErbB2 amp) = assay: In vitro growth inhibition (GI50), HCC1954; type: cell-based; conditions: Homo sapiens
Text: (§1) Tumor cell line is an effective cell model for studying the inhibition of tumor cell growth or proliferation in vitro. In the present invention, a representative tumor cell line was selected to determine the cell growth inhibition activity of the present compound. All cell lines used were from ATCC, DSMZ, and the Cell Bank of the Chinese Academy of Sciences. Cell culture conditions and methods were in accordance with the requirements of each cell line. Cells were subcultured in vitro for no more than 3 passages each time, and as required, single-clone purification and identification of cell lines could be carried out.
(§2) The cell culture media used were RPMI1640 (Gibco), MEM (Gibco), McCOY'S5A (Gibco), and IMDM (Gibco). The complete medium was prepared by supplement with 5˜20% fetal calf serum (Gibco), 1% double-antibiotics (10000 units/mL penicillin and 10000 units/mL), 2 mM glutamine or 1 mM sodium pyruvate, respectively.
Human gastric cancer cell line NCI-N87 (HER2/ErbB2 amp, ATCC), human breast cancer cell line HCC1954 (HER2/ErbB2 amp, ATCC) and ZR-75-30 (HER2/ErbB2 amp, ATCC), human adenocarcinoma cell line AU565 (HER2/ErbB2 amp, ATCC), human lung squamous cell carcinoma cell line NCI-H2170 (HER2/ErbB2 amp, ATCC), human bronchioalveolar adenocarcinoma cell line NCI-H1781 (HER2/ErbB2 Ins G776V,C mutant type, ATCC) were cultured with a 1×RPMI1640 complete medium (10% FBS), respectively. Human lung adenocarcinoma cell line Calu-3 (HER2/ErbB2 amp, ATCC) was cultured with 1×MEM, 10% FBS, 1% double antibody, 1% NEAA (Gibco), 2 mM glutamine and 1 mM sodium pyruvate. The human breast cancer cell line SK-BR-3 (HER2/ErbB2 amp, ATCC) was cultured with a McCOY'S5A complete medium (10% FBS).
(§3) Adherent cells were digested with 0.25% pancreatin-EDTA (Gibco). The suspension cells were collected by centrifugation. The supernatant was discarded and the cell pellet was resuspended and counted. Different cell concentrations (5˜10×10^4 cells/mL) were prepared according to the growth cycle of each cell line and then seeded on a 96-well plate (Corning), 100 μL/well. The cells were incubated overnight at 37° C., 5% CO2. The compounds were added to the cells on the second day with 2 wells in parallel. The final concentration of organic solvent shall not exceed 1%. The cells were continually incubated for 3 to 5 days, and then subjected to MTT assay.
(§4) The compound of the present invention and the control compound were dissolved in DMSO (Sigma) respectively, with the purity of more than 98%. The compound was stored in a concentration of 10 mM at −20° C. and diluted to 2- or 10-fold series prior to use.
(§5) Dojindo CCK8 reagent kit was used as MTT assay. THERMO […] FC meter was used as microplate reader.
(§6) For adherent cells, culture medium was removed and immediately replaced with the fresh prepared medium which contains 10% CCK8 reagent (100 μL/well). For the suspension cells, CCK8 was directly added to 10% of the final concentration. The cells were continually incubated for 1˜4 h. When a dark yellow color could be observed in the solvent control wells, the absorbance value at OD450 nm was measured and the cell growth rate was calculated according to the following formula: Cell Growth Rate (%)=100*(T−T0)/(C−T0) T=optical density of drug treatment cell well—optical density of blank control well; T0=optical density of cell well before drug treatment—optical density of blank control well; C=optical density of cell well of solvent control group—optical density of blank control well. The concentration value of 50% inhibition of cell growth (GI50) was calculated according to the drug concentration and cell growth rate curve. The experiment was independently repeated 1˜3 times, and subject to biological statistical analysis. 4. Experimental Results
Tumor cell growth inhibition test was performed by selecting representative compounds (compounds 4, 11, 12, 16, 27, 68, 71, 77, 79, 89 and 116 of the present invention). […]

[1] = system: PC-9 (EGFR exon19 E746-A750 deletion); assay: In vitro growth inhibition (GI50), PC-9; type: cell-based; conditions: Homo sapiens; PC-9, EGFR DelE746-A750
Text: as §1, §2
Human epidermal cancer cell line A431 (EGFR WT, amplification and high expression, from Shanghai Cell Bank of Chinese Academy of Sciences and ATCC), human lung cancer cell line NCI-H292 (EGFR WT, purchased from Shanghai Cell Bank of Chinese Academy of Sciences), NSCLC cell lines PC-9 and HCC827 (EGFR exon19 E746-A750 deletion, two cell lines are sensitive to the first-generation EGFR PTK inhibitor), NSCLC cell line NCI-H1975 (EGFR L858R/T790M and the first-generation EGFR inhibitor resistance, ATCC) were cultured with 1×RPMI1640 complete medium (supplement with 10% FBS), respectively.
as §3, §4, §5, §6
Tumor cell growth inhibition test was performed by selecting representative compounds (compounds 4, 11, 12, 16, 27, 68, 71, 77, 79, 89 and 116 of the present invention). The initial concentration of the compound was 5,000 nM, then it was serially diluted by 2-fold or 10-fold to 0.01 nM. The GI50 value of each test compound was calculated according to the GI50 assay and calculation method. […]

GI50 (HCC1954 (HER2/ErbB2 amp)) [µM] | GI50 [1] [µM] | SMILES
> 2.5 | > 2.5 | CC(C)(C)c1cc(NC(=O)Nc2ccc(-n3cnc4cc(O)ccc43)cc2)no1 [Compound 4, 1-(5-tert-butyl-isoxazol-3-yl)-3-[4-(5-hydroxy-benzimidazol-1-yl)-phenyl]-urea]
> 2.5 | > 2.5 | CC(C)(C)c1cc(NC(=O)Nc2ccc(-n3cnc4cc(OCCO)ccc43)cc2)no1 [Compound 11, 1-(5-tert-butyl-isoxazol-3-yl)-3-{4-[5-(2-hydroxy-ethoxyl)-benzimidazol-1-yl]-phenyl]-urea]
> 2.5 | > 2.5 | CC(C)(C)c1cc(NC(=O)Nc2ccc(-n3cnc4cc(OCCN5CCOCC5)ccc43)cc2)no1 [Compound 16, 1-(5-tert-butyl-isoxazol-3-yl)-3-{4-[5-(2-morpholin-4-yl-ethoxyl)-benzimidazol-1-yl]-phenyl}-urea]
> 2.5 | > 2.5 | CC(C)(C)c1cc(NC(=O)Nc2ccc(-n3cnc4ccc(OCCN5CCOCC5)cc43)cc2)no1 [Compound 27, 1-(5-tert-butyl-isoxazol-3-yl)-3-{4-[6-(2morpholin-4-yl-ethoxyl)-benzimidazol-1-yl]-phenyl}-urea]
> 2.5 | > 2.5 | CC(C)(C)c1cc(NC(=O)Nc2ccc(-n3cnc4ccccc43)cc2)[nH]n1 [Compound 68, 1-(4-benzimidazol-1-yl-phenyl)-3-(5-tert-butyl-2H-pyrazol-3-yl)-urea]
> 2.5 | > 2.5 | COc1ccc2c(c1)ncn2-c1ccc(NC(=O)Nc2cc(C(C)(C)C)n[nH]2)cc1 [Compound 71, 1-(5-tert-butyl-2H-pyrazol-3-yl)-3-[4-(5-methoxyl-benzimidazol-1-yl)-phenyl]-urea]
> 2.5 | > 2.5 | CC(C)(C)c1cc(NC(=O)Nc2ccc(-n3cnc4cc(OCCO)ccc43)cc2)[nH]n1 [Compound 79, 1-(5-tert-butyl-2H-pyrazol-3-yl)-3-{4-[5-(2-hydroxy-ethoxyl)-benzimidazol-1-yl]-phenyl]urea]
> 2.5 | > 2.5 | CC(C)(C)c1cc(NC(=O)Nc2ccc(-n3cnc4cc(OCCN5CCOCC5)ccc43)cc2)[nH]n1 [Compound 89, 1-(5-tert-butyl-2H-pyrazol-3-yl)-3-{4-[5-(2-morpholin-4-yl-ethoxyl)-benzimidazol-1-yl]-phenyl}-urea]
> 2.5 | > 2.5 | CC(C)(C)c1cc(N)n(C(=O)Nc2ccc(-n3cnc4ccccc43)cc2)n1 [Compound 116, 5-amino-3-tert-butyl-pyrazol-1-carboxylic acid (4-benzimidazol-1-yl-phenyl)-amide]

SMILES | GI50 (HCC1954 (HER2/ErbB2 amp)) [µM] | GI50 [1] [µM]
COCCOc1ccc2c(c1)ncn2-c1ccc(NC(=O)Nc2cc(C(C)(C)C)n[nH]2)cc1 [Compound 77, 1-(5-tert-butyl-2H-pyrazol-3-yl)-3-{4-[5-(2-methoxyl-ethoxyl)-benzimidazol-1-yl]-phenyl}-urea] | > 2.5 | > 2.5
